Patent US20230323369A1, “SCREENING MODEL AND METHOD FOR HBV CCCDNA-TARGETING DRUG” (priority 2020, published 2023)
Where a name gives a salt, the structure may show the parent alone.

Legend:
RG-Hibit16 cells = assay: CCK8 cytotoxicity in RG-Hibit16 cells; details: 1 µM, 4 days
Procedure: (§1) In this example, the reporter model of Example 1 (HepaRG-Hibit16 integrated with Hibit16 constructed based on HepaRG cells) and the reporter model of Example 2 (HepG2-Rccc1a integrated with Rccc1a constructed based on HepG2) were investigated for screening cccDNA inhibitors. These two cells were used to evaluate the potential of 189 drugs to inhibit cccDNA, including clinical drugs for different diseases or drugs in the clinical research stage. The screening work was carried out in a 96-well cell culture plate, RG-Hibit16 cells were plated at a cell density of 15,000/well, and G2-Rcccla cells were plated at a cell density of 35,000/well. RG-Hibit16 cells were treated with drugs 1 week after plating. For RG-Hibit16, different compounds were added for treatment when Dox was added to induce virus expression; the next day after G2-Rccc1a cells were plated, they were firstly infected with adenovirus Adv-Cre to express Cre recombinase protein, and different compounds were added 2 days later for treatment, and all compounds were diluted to 1 µM at the final concentration, 200 µL per well; new medium was replaced every 2 days, the expression of HiBiT in the cell supernatant was detected after 4 days of compound treatment, and CCK8 detection reagent was added at a ratio of 10:1 to detect the cytotoxicity of the compounds.

HBV rcccDNA = assay: Compound screening in G2-Rccc1a reporter cells (HiBiT in supernatant, Adv-Cre); type: cell-based, hepatitis B virus; details: 1 µM, 4 days of compound treatment, among 189 compounds
Procedure: (§2) Detection of HiBiT: Nano Glo HiBiT Extracellular Detection System (Cat. No. N2421) of Promega Corporation was used for HiBiT detection, and the detection steps were carried out according to the kit instructions.
(§3) The reporter model prepared in Example 1 comprised an HBV variant integrated with 3 repeats of HiBiT sequence. The mRNA transcribed directly from the HBV variant as a template lacked the initiation codon for HiBiT expression, and could not translate the protein attached to the HiBiT tag. Only after the pgRNA transcribed from the HBV variant was reversely transcribed to form cccDNA, the mRNA transcribed from cccDNA as a template could translate the protein attached to the HiBiT tag, so the expression level of HiBiT could be used to indicate the formation of HBV cccDNA. In the reporter model prepared in Example 2, the HiBiT sequence was inserted in the middle of the HBV core sequence, the N-terminus sequence and C-terminus sequence of the core were respectively attached to the C-terminus and N-terminus of the HBV replicon, and loxP sequences were ligated to both ends of the HBV replicon, so that in the absence of Cre recombinase expression, the HiBiT tag lacked a promoter and could not be expressed; but with the expression of Cre recombinase, it could mediate the recombination of double-stranded DNA, so that the linear HBV genome DNA formed a closed circular DNA, and after the circular DNA was formed, the HiBiT tag could use the endogenous promoter of HBV to initiate the expression of the protein attached to the HiBiT tag, so the signal of the HiBiT tag could be used to indicate the formation of recombinant HBV cccDNA, i.e., HBV rcccDNA.

G2-Rccc1a cells = assay: CCK8 cytotoxicity in G2-Rccc1a cells; details: 1 µM, 4 days
Procedure: as §1

HBV = assay: HepG2-hNTCP-2B1 HBV infection model; type: cell-based, hepatitis B virus; details: for effect on intracellular cccDNA: HepG2-hNTCP-2B1, after 8 days of infection
Description: Detection of HBsAg/HBeAg: The detection procedures of hepatitis B surface antigen (chemiluminescence method CLEIA, product standard number: YZB/Guo 0346-2014) and e antigen (enzyme-linked immunosorbent assay ELISA, product standard number: YZB/Guo 0216-2013) were both carried out according to the detection methods of the kits of Beijing Wantai Company.
(§4) Detection of HBV cccDNA: The modified Hirt method was used for HBV cccDNA extraction, with Tiangen Plasmid Mini Kit. The lysis buffers involved were Buffer I (50 mM Tris, 10 mM EDTA, pH 7.5), Buffer II (1.2 % SDS), Buffer III (3 M CsCl, 1 M potassium acetate, 0.67 M acetic acid), which were used to replace P1, P2 and P3 in the Tiangen Plasmid Mini Kit respectively. The extraction steps and methods were performed by referring to the plasmid extraction method of the kit. The instrument used is Roche’s LightCycler® 96. HBV cccDNA and mitochondrial DNA (mtDNA) were quantified respectively, and the relative values of HBV cccDNA and mtDNA were calculated.
We further verified the functions of these 6 compounds in the HepG2-hNTCP-2B1 infection model. HepG2-hNTCP-2B1 was the single clone 2B1 selected for the highest susceptibility to HBV which is made by overexpressing hNTCP in HepG2 cells. In the evaluation by this model, the cells were firstly infected with HBV virus, washed with PBS to remove the residual virus on the next day, different compounds were added after 2 days, and then the cell supernatant was collected and fresh medium was replaced every 2 days, the viral antigen in the cell supernatant was detected, the cells were lysed after 8 days of infection, the intracellular HBV cccDNA was detected, and the evaluation results were shown in FIG. 7. […] The functions of these five compounds were verified in the HepG2-hNTCP-2B1 infection model, and the evaluation strategy was the same as that of the aforementioned inhibitor.

HBV cccDNA [1] = assay: Compound screening in RG-Hibit16 reporter cells (HiBiT in supernatant); type: cell-based, hepatitis B virus; details: 1 µM, 4 days of compound treatment, among 189 compounds
Procedure: as §2, §3

HBV cccDNA [2] = assay: HepaRG-Hibit16 reporter cells, evaluation of HBV inhibitors (Doxycycline induction); type: cell-based, hepatitis B virus; details: for formation of cccDNA: Doxycycline-induced, cell lysate
Procedure: as §2, §4
HepaRG-Hibit16 cells were obtained by transfecting HepaRG cells with Hibit16 plasmid and PiggyBac transposase, integrating the HBV variant sequence (Hibit16) and selection markers into the genome of the cells, and screened by puromycin resistance and red fluorescent marker; Doxycycline could activate TRE3G promoter to initiate the expression of iRFP670, as well as the transcription and replication of HBV, thereby generating HiBiT, as shown in FIG. 4A. To evaluate the function of HBV inhibitors in the cells, the cells were first plated, and Doxycycline was added to induce viral transcription and replication while different HBV inhibitors were added for intervention. The cell supernatant was collected every 2 days, the medium was replaced, and the HiBiT signal, HBsAg, HBeAg in the cell supernatant, and the HBV DNA and HBV cccDNA in the cell lysate were detected, and the responses of the cells to HBV inhibitors were shown in FIGS. 4B-F. Tenofovir (tenofovir disoproxil fumarate, TDF) is a nucleotide reverse transcriptase inhibitor, and Morphothiadin (abbreviation: Mor) is an assembly regulator of core particles, which are already in the clinical Phase II/III evaluation stage, and both can inhibit the formation of cccDNA.

[3] = HepG2-hNTCP-2B1, cell supernatant

| SMILES | cytotoxicity (CCK8) (RG-Hibit16 cells) | expression level of HiBiT (surrogate for HBV rcccDNA) (HBV rcccDNA) | cytotoxicity (CCK8) (G2-Rccc1a cells) | effect on HBeAg (HBV; [3]) | expression level of HiBiT (surrogate for HBV cccDNA) (HBV cccDNA [1]) | effect on intracellular cccDNA (HBV) | further results |
| --- | --- | --- | --- | --- | --- | --- | --- |
| C[C@@H](Oc1cc(-c2cnn(C3CCNCC3)c2)cnc1N)c1c(Cl)ccc(F)c1Cl [Crizotinib] | no obvious cytotoxicity | most significantly inhibited | no obvious cytotoxicity | – | – | – | – |
| CCCCCCCCCCCCCCCC[n+]1ccccc1 [Cetylpyridinium] | no obvious cytotoxicity | – | no obvious cytotoxicity | – | – | – | – |
| COc1ccccc1N1CCN(CC(O)COc2cccc3ccccc23)CC1 (stereo not drawn) [Naftopidil] | – | up-regulated effects | – | weak promotion effect | up-regulated effects | – | – |
| CC(C)OC(=O)OCOP(=O)(CO[C@H](C)Cn1cnc2c(N)ncnc21)OCOC(=O)OC(C)C [TDF, tenofovir disoproxil fumarate] | – | – | – | – | – | – | formation of cccDNA (HBV cccDNA [2]): could inhibit the formation of cccDNA |
| N=C(N)NC(=O)Cc1c(Cl)cccc1Cl [Guanfacine] | no obvious cytotoxicity | – | no obvious cytotoxicity | – | most significantly inhibited | – | – |
| CC1(C)CCC(C)(C)c2cc(Cn3cccn3)c(/C=C/c3ccc(C(=O)O)cc3)cc21 [Palovarotene] | no obvious cytotoxicity | most significantly inhibited | no obvious cytotoxicity | – | most significantly inhibited | – | inhibition rate against HBsAg (HBV; [3]): more than 60%; inhibitory effect on HBsAg (HBV; [3]): relatively poor; inhibition rate against HBV cccDNA (HBV; HepG2-hNTCP-2B1, intracellular, after 8 days of infection): more than 60% |
| CC[C@]1(O)C[C@H]2CN(CCc3c([nH]c4ccccc34)[C@@](C(=O)OC)(c3cc4c(cc3OC)N(C=O)[C@H]3[C@@](O)(C(=O)OC)[C@H](OC(C)=O)[C@]5(CC)C=CCN6CC[C@]43[C@@H]65)C2)C1 [Vincristine] | – | up-regulated effects | – | weak promotion effect | up-regulated effects | up-regulate | expression level of HBsAg (HBV; [3]): significantly up-regulate |
| CN1CCc2c(c3ccccc3n2Cc2ccccc2)C1 [Mebhydrolin] | – | up-regulated effects | – | weak promotion effect | up-regulated effects | up-regulate | – |
| CCOC(=O)C1=C(CN2CCOCC2)NC(c2nccs2)=NC1c1ccc(F)cc1Br (stereo not drawn) [Mor, Morphothiadin] | – | – | – | – | – | – | formation of cccDNA (HBV cccDNA [2]): could inhibit the formation of cccDNA; expression level of HiBiT vs control group (HBV cccDNA [2]; cell supernatant): significantly lower than that in the control group |
| C[C@H]1O[C@@H](n2cc(F)c(=O)[nH]c2=O)[C@H](O)[C@@H]1O [Doxifluridine] | no obvious cytotoxicity | most significantly inhibited | no obvious cytotoxicity | – | – | significant inhibitory effect | – |
| O=C1c2c(O)cccc2Cc2cccc(O)c21 [Dithranol] | no obvious cytotoxicity | – | no obvious cytotoxicity | – | – | – | – |
| Nc1nc(Cl)nc2c1ncn2[C@H]1C[C@H](O)[C@@H](CO)O1 [Cladribine] | – | up-regulated effects | – | weak promotion effect | up-regulated effects | up-regulate | expression level of HBsAg (HBV; [3]): significantly up-regulate |
| O=C(O)c1cc(-c2ccccc2)nc2ccccc12 [Cinchophen] | – | up-regulated effects | – | weak promotion effect | up-regulated effects | up-regulate | – |
